Tests used:
Oral exposure in the rat = assay type: in vivo, Sprague Dawley rats; details: 1 mg/kg intravenous
Description: The oral bioavailability of three formulations of solid dispersions of compound (1-1) was determined in rats. The three dispersions chosen were the 25% dispersion of compound (1-1) in PVP, the 25% dispersion of compound (1-1) in HPMCAS-MG, and the 50% dispersion of compound (1-1) in HPMCAS-MG. The animals used in the study were Specific Pathogen Free (SPF) Hsd: Sprague Dawley rats obtained from the Central Animal Laboratory at the University of Turku, Finland. The rats were originally purchased from Harlan, The Netherlands. The rats were female and were ten weeks of age, and 12 rats were used in the study. […]
The oral dosing solutions containing the 25% dispersion of compound (1-1) in PVP, the 25% dispersion of compound (1-1) in HPMCAS-MG, and the 50% dispersion of compound (1-1) in HPMCAS-MG were prepared by adding a pre-calculated amount of sterile water for injection to containers holding the dispersion using appropriate quantities to obtain a concentration of 0.75 mg/mL of compound (1-1). […]
Pharmacokinetic parameters were calculated with the Phoenix WinNonlin software package (version 6.2.1, Pharsight Corp., CA, USA) with standard noncompartmental methods. The elimination phase half-life (t1/2) was calculated by least-squares regression analysis of the terminal linear part of the log concentration-time curve. […]

MDA-MB-468 [1] = test: MTT proliferation assay, MDA-MB-468; details: for Emax / GI50: Homo sapiens
MDA-MB-231 = test: Western blotting and RT-PCR expression, MDA-MB-231; assay type: cell-based, human; details: 75 nM; 24, 48 and 72 h
Source text: Logarithmic transformation of the variable was applied before the ANOVA test if required. As shown in FIG. 16A-C, Western blots are representative of three independent experiments where each bar and vertical line represents the mean±SEM, respectively (n=3). As shown in FIG. 15D-15G, C-MYC protein and mRNA levels were unchanged by Compound (1-1) treatment in all the three cell lines.
CDKN1A (p21) mRNA levels were increased in all three cell models (p<0.001). […] Significant differences in the mRNA levels were determined by one-way ANOVA test (p<0.01) followed by SNK a posteriori test (*p<0.05, **p<0.01, […]). Logarithmic transformation of the variable was applied before the ANOVA test if required. Each bar and vertical line represents the mean±SEM, respectively (n=3). Western blots are representative of 3 independent experiments.

MDA-MB-468 [2] = test: Cell counting proliferation, MDA-MB-468; assay type: cell-based; details: Homo sapiens
[3] = MDA-MB-468, 48 h, 48 h exposure, hypoxia (0.1% O2)
[4] = MDA-MB-468, 48 h, 48 h exposure, hypoxia (0.1% O2), * = apparent value
[5] = MDA-MB-468, 48 h, 48 h exposure, normoxia
[6] = MDA-MB-468, 72 h, 72 h exposure, hypoxia (0.1% O2)
[7] = MDA-MB-468, 72 h, 72 h exposure, normoxia

CI/F (Oral exposure in the rat): 13.4 mL/min/kg
GI50 (MDA-MB-468 [1]; [4]): 258 nM
GI50 (MDA-MB-468 [1]; [5]): > 6000 nM
GI50 (MDA-MB-468 [1]; [6]): 296 nM
GI50 (MDA-MB-468 [1]; MDA-MB-468, 72 h, 72 h exposure, normoxia, * = apparent value): 448 nM
GI50 (MDA-MB-468 [2]; [4]): 60.6 nM
GI50 (MDA-MB-468 [2]; [5]): > 6000 nM
GI50 (MDA-MB-468 [2]; [6]): 251 nM
GI50 (MDA-MB-468 [2]; [7]): 304 nM
Structure (SMILES): Cc1sc2c(c1C)C(c1ccc(Cl)cc1)=N[C@@H](CC(=O)Nc1ccc(O)cc1)c1nnc(C)n1-2 [Compound (1-1), 2-[(6S)-4-(4-chlorophenyl)-2,3,9-trimethyl-6H-thienol[3,2-f]-[1,2,4]triazolo[4,3-a][1,4]diazepin-6-yl]-N-(4-hydroxyphenyl)acetamide dihydrate]
Emax (MDA-MB-468 [1]; [3]): 53%
Emax (MDA-MB-468 [1]; [5]): < 10%
Emax (MDA-MB-468 [1]; [6]): 77%
Emax (MDA-MB-468 [1]; [7]): 42%
effect of hypoxia on antiproliferative activity (MDA-MB-468 [1]; hypoxia (0.1% O2) vs normoxia, MTT assay and cell counting): significantly (p<0.05) increased
BRD2 levels (MDA-MB-231): increased
Emax (MDA-MB-468 [2]; [3]): 50%
Emax (MDA-MB-468 [2]; [5]): 30%
Emax (MDA-MB-468 [2]; [6]): 71%
Emax (MDA-MB-468 [2]; [7]): 80%

Source: US9968619B2, “Method of treating triple-negative breast cancer using thienotriazolodiazepine compounds” (ONCOETHIX GMBH, priority 2014, dated 2018)
